PMC9823097, “Dysregulation of PRMT5 in chronic lymphocytic leukemia promotes progression with high risk of Richter’s transformation” (Nature Communications, 2023)

System: Mec-1 cells
Test: Cell growth curves over 12 days, Mec-1
Assay type: cell-based
Procedure: Live cells/mL were counted on days 3, 6, 10, and 12. […] The split factor was calculated at indicated time points by dividing the counted cells/mL by 3E5. Cell growth was extrapolated over time by multiplying the subsequent cell count by the previous split factor. Cell growth is plotted as fold change relative to DMSO-treated cells.

## O=C(NC[C@H](O)CN1CCc2ccccc2C1)c1cc(NC2COC2)ncn1 [EPZ015666]
Mec-1, 1 nM, day 0
  Rep 1 Live Cells [Fold Change]: 1 Fold Change
  Rep 2 Live Cells [Fold Change]: 1 Fold Change
Mec-1, 1 nM, day 3
  Rep 1 Live Cells [Fold Change]: 8.617 Fold Change
  Rep 2 Live Cells [Fold Change]: 9.35 Fold Change
Mec-1, 1 nM, day 6
  Rep 1 Live Cells [Fold Change]: 72.0928 Fold Change
  Rep 2 Live Cells [Fold Change]: 74.5 Fold Change
Mec-1, 1 nM, day 10
  Rep 1 Live Cells [Fold Change]: 633.719 Fold Change
  Rep 2 Live Cells [Fold Change]: 819 Fold Change
Mec-1, 1 nM, day 12
  Rep 1 Live Cells [Fold Change]: 3882.24 Fold Change
  Rep 2 Live Cells [Fold Change]: 4970 Fold Change
Mec-1, 10 nM, day 0
  Rep 1 Live Cells [Fold Change]: 1 Fold Change
  Rep 2 Live Cells [Fold Change]: 1 Fold Change
Mec-1, 10 nM, day 3
  Rep 1 Live Cells [Fold Change]: 7.233 Fold Change
  Rep 2 Live Cells [Fold Change]: 10.3 Fold Change
Mec-1, 10 nM, day 6
  Rep 1 Live Cells [Fold Change]: 40.9889 Fold Change
  Rep 2 Live Cells [Fold Change]: 85.8 Fold Change
Mec-1, 10 nM, day 10
  Rep 1 Live Cells [Fold Change]: 534.674 Fold Change
  Rep 2 Live Cells [Fold Change]: 1290 Fold Change
Mec-1, 10 nM, day 12
  Rep 1 Live Cells [Fold Change]: 1546.22 Fold Change
  Rep 2 Live Cells [Fold Change]: 3960 Fold Change
Mec-1, 100 nM, day 0
  Rep 1 Live Cells [Fold Change]: 1 Fold Change
  Rep 2 Live Cells [Fold Change]: 1 Fold Change
  Rep 3 Live Cells [Fold Change]: 1 Fold Change
  Rep 4 Live Cells [Fold Change]: 1 Fold Change
Mec-1, 100 nM, day 3
  Rep 1 Live Cells [Fold Change]: 10.3 Fold Change
  Rep 2 Live Cells [Fold Change]: 8.66 Fold Change
  Rep 3 Live Cells [Fold Change]: 6.583 Fold Change
  Rep 4 Live Cells [Fold Change]: 8.22 Fold Change
Mec-1, 100 nM, day 6
  Rep 1 Live Cells [Fold Change]: 88.992 Fold Change
  Rep 2 Live Cells [Fold Change]: 55.1353 Fold Change
  Rep 3 Live Cells [Fold Change]: 56.8361 Fold Change
  Rep 4 Live Cells [Fold Change]: 60.1 Fold Change
Mec-1, 100 nM, day 10
  Rep 2 Live Cells [Fold Change]: 518.272 Fold Change
  Rep 3 Live Cells [Fold Change]: 601.592 Fold Change
  Rep 4 Live Cells [Fold Change]: 484 Fold Change
Mec-1, 100 nM, day 12
  Rep 1 Live Cells [Fold Change]: 615.119 Fold Change
  Rep 2 Live Cells [Fold Change]: 1560 Fold Change
  Rep 3 Live Cells [Fold Change]: 1676.06 Fold Change
  Rep 4 Live Cells [Fold Change]: 3230 Fold Change
Mec-1, 1 µM, day 0
  Rep 1 Live Cells [Fold Change]: 1 Fold Change
  Rep 2 Live Cells [Fold Change]: 1 Fold Change
  Rep 3 Live Cells [Fold Change]: 1 Fold Change
  Rep 4 Live Cells [Fold Change]: 1 Fold Change
Mec-1, 1 µM, day 3
  Rep 1 Live Cells [Fold Change]: 7.867 Fold Change
  Rep 2 Live Cells [Fold Change]: 5.46 Fold Change
  Rep 3 Live Cells [Fold Change]: 6.18 Fold Change
  Rep 4 Live Cells [Fold Change]: 8.87 Fold Change
Mec-1, 1 µM, day 6
  Rep 1 Live Cells [Fold Change]: 54.0178 Fold Change
  Rep 2 Live Cells [Fold Change]: 38.4384 Fold Change
  Rep 3 Live Cells [Fold Change]: 49.852 Fold Change
  Rep 4 Live Cells [Fold Change]: 61.2 Fold Change
Mec-1, 1 µM, day 10
  Rep 1 Live Cells [Fold Change]: 514.04 Fold Change
  Rep 2 Live Cells [Fold Change]: 244.725 Fold Change
  Rep 3 Live Cells [Fold Change]: 462.377 Fold Change
  Rep 4 Live Cells [Fold Change]: 387 Fold Change
Mec-1, 1 µM, day 12
  Rep 1 Live Cells [Fold Change]: 1825.77 Fold Change
  Rep 2 Live Cells [Fold Change]: 748.774 Fold Change
  Rep 3 Live Cells [Fold Change]: 1841.8 Fold Change
  Rep 4 Live Cells [Fold Change]: 1610 Fold Change
Mec-1, continuous exposure over 12 days
  effect on growth potential (cell growth): No changes in growth potential
